# The supplement of paper PMC10307832
# Assays:
# Assay in all cases: relative viability (nuclei count vs DMSO), 5 days (fraction); higher = more cells survive
# NVP-TAE684 + Bortezomib = compound: COc1cc(N2CCC(N3CCN(C)CC3)CC2)ccc1Nc1ncc(Cl)c(Nc2ccccc2S(=O)(=O)C(C)C)n1 [NVP-TAE684] + CC(C)C[C@H](NC(=O)[C@H](Cc1ccccc1)NC(=O)c1cnccn1)B(O)O [Bortezomib] (partner 0.002 µM)
# Procedure, shortened: (§1)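 A single step with final 0.05% Triton X-100, 1% formaldehyde and 1 ug/ml Hoechst fixed the cells and stained nuclei 5 days after treatment. Lung cancer cell lines in 1536-well plates had been treated by pin tool the day after seeding with one drug alone or a fixed anchor-drug dose plus five library-drug doses (not always all listed) in √10 steps, and nuclei were counted on 4× images. Relative viability is the ratio of nuclei in treated wells to nuclei in vehicle wells, taken as the median of duplicate plates.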
# NVP-TAE684 + Palbociclib = compound: COc1cc(N2CCC(N3CCN(C)CC3)CC2)ccc1Nc1ncc(Cl)c(Nc2ccccc2S(=O)(=O)C(C)C)n1 [NVP-TAE684] + CC(=O)c1c(C)c2cnc(Nc3ccc(N4CCNCC4)cn3)nc2n(C2CCCC2)c1=O [Palbociclib] (partner 0.5 µM)
# Procedure, shortened: as §1
# NVP-TAE684 + Crizotinib = compound: COc1cc(N2CCC(N3CCN(C)CC3)CC2)ccc1Nc1ncc(Cl)c(Nc2ccccc2S(=O)(=O)C(C)C)n1 [NVP-TAE684] + C[C@@H](Oc1cc(-c2cnn(C3CCNCC3)c2)cnc1N)c1c(Cl)ccc(F)c1Cl [Crizotinib] (partner 1 µM)
# Procedure, shortened: as §1
# Vandetanib + Bortezomib = compound: COc1cc2/c(=N/c3ccc(Br)cc3F)nc[nH]c2cc1OCC1CCN(C)CC1 [Vandetanib] + CC(C)C[C@H](NC(=O)[C@H](Cc1ccccc1)NC(=O)c1cnccn1)B(O)O [Bortezomib] (partner 0.002 µM)
# Procedure, shortened: as §1
# Vandetanib + OSI-027 = compound: COc1cc2/c(=N/c3ccc(Br)cc3F)nc[nH]c2cc1OCC1CCN(C)CC1 [Vandetanib] + COc1cccc2cc(-c3nc([C@H]4CC[C@H](C(=O)O)CC4)n4ncnc(N)c34)[nH]c12 [OSI-027] (partner 0.5 µM)
# Procedure, shortened: as §1
Cell Line,relative viability (NVP-TAE684 + Bortezomib; first compound 0.2 µM),relative viability (NVP-TAE684 + Bortezomib; first compound 0.6325 µM),relative viability (NVP-TAE684 + Bortezomib; first compound 2 µM),relative viability (NVP-TAE684 + Palbociclib; first compound 0.2 µM),relative viability (NVP-TAE684 + Palbociclib; first compound 0.6325 µM),relative viability (NVP-TAE684 + Palbociclib; first compound 2 µM),relative viability (NVP-TAE684 + Crizotinib; first compound 0.2 µM),relative viability (NVP-TAE684 + Crizotinib; first compound 0.6325 µM),relative viability (NVP-TAE684 + Crizotinib; first compound 2 µM),relative viability (Vandetanib + Bortezomib; first compound 0.02 µM),relative viability (Vandetanib + Bortezomib; first compound 0.2 µM),relative viability (Vandetanib + Bortezomib; first compound 0.6325 µM),relative viability (Vandetanib + Bortezomib; first compound 2 µM),relative viability (Vandetanib + OSI-027; first compound 0.02 µM),relative viability (Vandetanib + OSI-027; first compound 0.2 µM),relative viability (Vandetanib + OSI-027; first compound 0.6325 µM),relative viability (Vandetanib + OSI-027; first compound 2 µM),relative viability (Vandetanib + Bortezomib; first compound 0.06325 µM),relative viability (Vandetanib + OSI-027; first compound 0.06325 µM)
NCI-H2347,1.41,0.822,1.02,0.449,0.453,0.359,0.683,0.619,0.617,0.878,0.896,0.956,0.969,0.518,0.386,0.492,0.361,–,–
COR-L 105,0.903,0.556,0.309,0.4,0.393,0.297,0.677,0.461,0.388,0.827,0.851,0.474,0.388,0.629,0.507,0.411,0.329,0.661,0.641
NCI-H1650,0.194,0.183,0.173,0.297,0.299,0.211,0.899,0.89,1,0.253,–,0.209,0.195,0.621,0.552,0.452,0.439,0.21,0.436
NCI-H838,0.86,0.902,0.399,0.199,0.197,0.141,0.962,0.78,0.522,0.73,0.664,0.706,0.614,0.409,0.37,0.333,0.424,0.807,0.379
NCI-H2009,0.977,0.897,0.645,0.2,0.183,0.203,1.07,0.968,0.788,0.895,1.06,0.996,1.21,0.643,0.687,0.644,0.59,0.931,0.6
H3255,0.766,0.618,0.746,0.324,0.299,0.296,0.988,0.646,0.7,0.972,0.632,0.367,0.233,0.655,0.455,0.417,0.227,0.71,0.459
HCC-78,0.428,0.381,0.307,0.487,0.388,0.479,0.287,0.296,0.286,0.618,0.511,0.668,0.383,0.374,0.42,0.364,0.361,0.6,0.39
EMC-BAC-2,–,1.01,0.734,0.483,0.499,0.357,0.751,0.806,0.441,1.02,1.01,1.03,1.04,0.382,0.318,0.381,0.38,1.04,0.358
NCI-H2228,0.633,0.33,0.214,0.44,0.253,0.279,0.476,0.42,0.139,0.775,–,1.03,0.814,0.651,0.744,0.422,0.631,0.942,0.42
HCC-827,–,0.988,1.05,0.452,0.511,0.5,0.914,0.907,0.868,1.06,1.04,0.795,0.495,0.895,0.707,0.164,0.149,1.02,0.752
ChaGo-K-1,1.18,0.691,0.952,1.04,–,0.7,1.09,1.11,0.713,1.11,0.593,0.887,0.567,0.532,0.515,0.602,0.591,0.985,0.54
LXF-289,1.06,1.03,1.02,0.56,0.618,0.643,0.852,0.791,0.706,0.999,0.932,1.04,0.986,0.774,0.877,0.771,0.741,0.895,0.708
HOP-62,0.678,0.725,0.758,0.54,0.501,0.491,–,0.997,0.823,0.624,0.847,0.918,0.663,0.789,0.815,0.903,0.846,0.667,0.739
LCLC-103H,1.09,1.11,–,0.482,0.447,0.413,1.16,1.08,1,1.09,1.05,1.05,0.924,0.428,0.438,0.423,0.448,0.966,0.44
LOU-NH91,0.548,0.492,0.518,0.548,0.504,0.502,0.7,0.725,0.592,0.514,0.535,0.504,0.504,0.76,0.599,0.502,0.515,0.47,0.604
NCI-H1915,1.09,1.03,1.05,0.558,0.525,0.491,0.922,0.921,0.858,0.947,1.07,0.973,0.943,0.599,0.616,0.648,0.569,0.885,0.575
COR-L23,–,1.04,0.616,0.307,0.209,0.152,0.536,0.69,0.238,0.869,0.925,0.999,0.994,0.731,0.736,0.684,0.789,0.814,0.671

Cell Line,relative viability (NVP-TAE684 + Bortezomib; first compound 0.2 µM),relative viability (NVP-TAE684 + Bortezomib; first compound 0.6325 µM),relative viability (NVP-TAE684 + Bortezomib; first compound 2 µM),relative viability (NVP-TAE684 + Palbociclib; first compound 0.2 µM),relative viability (NVP-TAE684 + Palbociclib; first compound 0.6325 µM),relative viability (NVP-TAE684 + Palbociclib; first compound 2 µM),relative viability (NVP-TAE684 + Crizotinib; first compound 0.2 µM),relative viability (NVP-TAE684 + Crizotinib; first compound 0.6325 µM),relative viability (NVP-TAE684 + Crizotinib; first compound 2 µM),relative viability (Vandetanib + Bortezomib; first compound 0.02 µM),relative viability (Vandetanib + Bortezomib; first compound 0.2 µM),relative viability (Vandetanib + Bortezomib; first compound 0.6325 µM),relative viability (Vandetanib + Bortezomib; first compound 2 µM),relative viability (Vandetanib + OSI-027; first compound 0.02 µM),relative viability (Vandetanib + OSI-027; first compound 0.2 µM),relative viability (Vandetanib + OSI-027; first compound 0.6325 µM),relative viability (Vandetanib + OSI-027; first compound 2 µM),relative viability (Vandetanib + Bortezomib; first compound 0.06325 µM),relative viability (Vandetanib + OSI-027; first compound 0.06325 µM)
NCI-H1734,0.986,0.982,0.601,0.375,0.324,0.316,–,0.7,0.424,0.976,0.944,0.904,0.926,0.576,0.543,0.611,0.652,0.869,0.605
NCI-H2405,0.941,0.986,0.82,0.524,0.525,0.337,0.828,–,0.644,0.96,0.985,0.948,1,0.621,0.72,0.671,0.482,0.9,0.422
NCI-H2087,0.998,0.789,0.886,0.206,0.22,0.248,0.942,1.14,0.642,0.813,0.859,0.857,0.833,0.524,0.581,0.614,0.513,0.761,0.526
NCI-H2085,0.95,0.926,0.955,0.463,0.512,0.478,0.788,0.872,0.55,1.08,1.02,1.09,1.04,0.797,0.735,0.673,0.559,1.02,0.795
NCI-H2023,–,0.944,0.268,0.291,0.358,0.116,0.549,0.45,0.144,0.924,0.96,1.03,1.04,0.375,0.429,0.37,0.41,0.839,0.34
SW 1573,1.02,–,0.927,0.414,0.294,0.169,0.971,0.805,0.673,1,1.16,1.01,0.879,0.508,0.653,0.634,0.534,0.817,0.57
NCI-H3122,0.763,0.218,0.162,0.103,0.0833,0.0801,0.243,0.216,0.179,0.978,1.05,0.953,1,0.97,0.937,0.931,1.06,1.03,0.924
NCI-H661,0.791,0.88,0.842,0.423,0.378,0.424,1.03,1.02,1.05,0.828,0.769,0.807,0.702,0.721,0.668,0.58,0.629,0.943,0.66
NCI-H441,0.516,0.358,0.204,0.182,0.192,0.154,0.661,0.659,0.315,0.449,0.373,0.547,0.386,0.551,0.713,0.643,0.566,0.459,0.619
PC-3 [JPC-3],0.99,–,0.731,0.53,0.521,0.422,0.993,1,0.946,0.828,0.646,0.734,0.431,0.757,0.795,0.462,0.45,0.738,0.768
NCI-H1993,–,1.09,0.806,0.437,0.614,0.475,–,0.709,0.548,1.03,1.04,0.807,0.719,0.521,0.557,0.637,0.552,0.905,0.573
NCI-H1355,1.23,1.17,0.859,0.366,0.368,0.269,1.09,0.978,0.568,1.22,1.16,1.22,1.27,0.446,0.386,0.5,0.387,1.18,0.362
NCI-H23,0.867,0.993,0.54,0.439,0.5,0.241,0.463,0.451,0.254,1,1.06,0.785,0.884,0.513,0.573,0.613,0.746,0.944,0.559
CAL-12T,0.974,0.645,0.366,0.357,0.344,0.186,0.63,0.444,0.282,1.03,0.865,0.82,0.537,0.701,0.541,0.626,0.291,1.13,0.655
ABC-1,0.223,0.256,0.169,0.635,0.759,0.363,1.06,0.893,0.296,0.304,0.287,0.406,0.244,0.43,0.488,0.479,0.254,0.3,0.464
HCC-44,1,0.863,0.83,1.01,0.986,0.867,0.782,0.868,0.489,0.866,0.951,0.958,0.89,0.434,0.574,0.439,0.427,0.884,0.49
